{"source": "patent US11680264B2", "about": "“Methods of modulating melanosome pH and melanin level in cells” (Cornell University, priority 2016, dated 2023)", "key": {"sAC^FF mouse melanocytes": {"test_system": "sAC^FF mouse melanocytes", "assay": "LysoSensor Yellow/Blue DND-160 organelle pH assay", "format": "cell-based", "conditions": "30 μM, 4 hours", "protocol": "(§1) To determine the pH of the sAC^KO and sAC^FF melanocytes the pH-sensitive vital dye LysoSensor Yellow/Blue DND-160 (Bellono et al. Sci Rep., 6:26570 (2016)) was used. Briefly, cells were incubated with 1 μM LysoSensor DND-160 (Invitrogen) for 5 minutes at 37° C. Lysosensor was excited at 405 nm and its emission detected at 417-483 nm (W1) and 490-530 nm (W2). The ratio of emissions (W1/W2) in Lysosensor-stained puncta was assigned to a pH value based on a calibration curve generated for each experiment using solutions containing 125 mM KCl, 25 mM NaCl, 24 μM monensin, and varying concentrations of MES to adjust the pH to 4, 4.5, 5.0, 5.5, 6.0, 6.5, 7.0, 7.5. The fluorescence ratio was linear for pH 5.0-7.0.\nas §1, with “The effect” for “To determine the pH”, “pharmacologic inhibition of sAC was examined using” for “the sAC^KO and sAC^FF melanocytes”, “vial” for “vital”, “assay, described above.” for “(Bellono et al. Sci Rep., 6:26570 (2016)) was used.”, “Briefly, cultured sAC^FF melanocytes were treated for 4 hours with 30 μM KH7, 30 μM LRE1, or control (untreated). The” for “Briefly,”"}, "sAC^KO mouse melanocytes": {"test_system": "sAC^KO mouse melanocytes", "assay": "LysoSensor Yellow/Blue DND-160 organelle pH assay", "format": "cell-based", "conditions": "30 μM, 4 hours", "protocol": "as §1\nas §1, with “The effect” for “To determine the pH”, “pharmacologic inhibition of sAC was examined using” for “the sAC^KO and sAC^FF melanocytes”, “vial” for “vital”, “assay, described above.” for “(Bellono et al. Sci Rep., 6:26570 (2016)) was used.”, “Briefly, cultured sAC^FF melanocytes were treated for 4 hours with 30 μM KH7, 30 μM LRE1, or control (untreated). The” for “Briefly,”"}, "C3H/HeJ mice": {"test_system": "C3H/HeJ mice", "assay": "Topical treatment of epilated back skin, hair pigmentation", "format": "in vivo, mouse", "protocol": "Therefore, experiments were performed to determine whether inhibition of sAC in animals could alter hair pigmentation. Animal experiments were performed in accordance with approved Institutional Animal Care and Use Committee protocol at Weill Cornell Medicine. Age and gender matched C3H/HeJ mice (female, 7 weeks old) were purchased from The Jackson Laboratory. For the analysis of hair pigmentation, the upper and lower dorsum of each mouse were epilated using hair removal wax. 10 μl of KH7 (42 mg/ml in DMSO), LRE1 (28 mg/ml in DMSO) or DMSO (vehicle control) was topically applied onto the upper back and DMSO was applied to the lower back three times a day over two weeks. These mice were monitored for changes in coat color as the epilated hair grew back. Hair was removed from each treated area after 3 weeks to measure the length of the total hair, apical black tip and subapical agouti (pheomelanin) band under a stereo microscope. Mice were euthanized and the treated skin was submitted to a blinded animal pathologist for histological evaluation of the epidermis and hair follicles. This experiment was performed twice with 3-4 mice per cohort (total n=6-7)"}, "[1]": {"conditions": "topical on back, hair removed after 3 weeks"}}, "data": [{"smiles": "CC(Sc1nc2ccccc2[nH]1)C(=O)N/N=C/c1cc(Br)ccc1O", "note": "(stereo not drawn) [KH7]", "values": [{"measurement": "pH of LysoSensor-visualized organelles", "setting": "sAC^FF mouse melanocytes", "value": "induced an alkaline pH shift"}, {"measurement": "pH of LysoSensor-visualized organelles", "setting": "sAC^KO mouse melanocytes", "value": "had no effect"}, {"measurement": "eumelanin production in hair (microscopic examination)", "setting": "C3H/HeJ mice; [1]", "value": "increase in eumelanin production"}, {"measurement": "length of the agouti (pheomelanin) band", "setting": "C3H/HeJ mice; [1]", "value": "reduction in length of the agouti (pheomelanin) band"}, {"measurement": "histologic examination of treated skin", "setting": "C3H/HeJ mice; topical on back, two weeks", "value": "did not reveal any pathological change to the hair follicles or epidermis"}, {"measurement": "colour of regrown hair versus vehicle control", "setting": "C3H/HeJ mice; topical on epilated back, 10 μl KH7 42 mg/ml or LRE1 28 mg/ml in DMSO, three times a day over two weeks", "value": "visual darkening of regrown hair"}]}]}
